Assay results reported in patent US20060223996A1, “IL-12 modulatory compounds” (Synta Pharmaceuticals Corp., priority 2004, published 2006).

system: IL-12; experiment: Human in vitro assay: inhibition of IL-12 production in IFNγ/LPS- or IFNγ/SAC-stimulated human PBMC or THP-1 cells (ELISA); assay type: cell-based; settings: read-out: IC50 Range (representative in vitro IC50 data)
Procedure, shortened: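 Sandwich ELISA for IL-12 (p70, p40) on supernatants collected 18 h after stimulation gave IC50 values; MTS monitored viability. THP-1 cells: IFNγ 100 U/mL priming 22 h, SAC 0.025%. PBMC: IFNγ 30 U/mL for 22 h plus LPS 1 μg/mL, or IFNγ 100 U/mL plus SAC 0.01%. Final DMSO 0.25%.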

IC50 [nM]	Compound
< 1000	CNc1cc(NC(=O)c2cc(OCCN3CCOCC3)nc(N3CCOCC3)n2)ccc1C [Compound 291, 2-Morpholin-4-yl-6-(2-morpholin-4-yl-ethoxy)-pyrimidine-4-carboxylic acid (4-methyl-3-methylamino-phenyl)-amide]
≥ 1000	O=C(Nc1cccnc1)c1cc(OCCN2CCOCC2)nc(N2CCOCC2)n1 [Compound 292, 2-Morpholin-4-yl-6-(2-morpholin-4-yl-ethoxy)-pyrimidine-4-carboxylic acid pyridin-3-ylamide]
≥ 1000	O=C(Nc1nnc(N2CCOCC2)[nH]1)c1cc(OCCN2CCOCC2)nc(N2CCOCC2)n1 [Compound 293, 2-Morpholin-4-yl-6-(2-morpholin-4-yl-ethoxy)-pyrimidine-4-carboxylic acid (5-morpholin-4-yl-4H-[1,2,4]triazol-3-yl)-amide]
< 1000	COC(=O)NCCOc1cc(C(=O)Nc2ccc3[nH]c(C)c(C)c3c2)nc(N2CCOCC2)n1 [Compound 294, {2-[6-(2,3-Dimethyl-1H-indol-5-ylcarbamoyl)-2-morpholin-4-yl-pyrimidin-4-yloxy]-ethyl}-carbamic acid methyl ester]
< 1000	O=C(Nc1cccc(N2CCOCC2)c1)c1cc(OCCN2CCOCC2)nc(N2CCOCC2)n1 [Compound 295, 2-Morpholin-4-yl-6-(2-morpholin-4-yl-ethoxy)-pyrimidine-4-carboxylic acid (3-morpholin-4-yl-phenyl)-amide]
≥ 1000	O=C(Nc1ccc2c(c1)NCCC2)c1cc(OCCN2CCOCC2)nc(N2CCOCC2)n1 [Compound 296, 2-Morpholin-4-yl-6-(2-morpholin-4-yl-ethoxy)-pyrimidine-4-carboxylic acid (1,2,3,4-tetrahydro-quinolin-7-yl)-amide]
≥ 1000	Cc1ccc(NC(=O)c2cc(OCCN3CCOCC3)nc(N3CCOCC3)n2)cn1 [Compound 297, 2-Morpholin-4-yl-6-(2-morpholin-4-yl-ethoxy)-pyrimidine-4-carboxylic acid (6-methyl-pyridin-3-yl)-amide]
< 1000	Cc1cccc(NC(=O)c2cc(N(C)CCO)nc(N3CCOCC3)n2)c1 [Compound 298, 6-[(2-Hydroxy-ethyl)-methyl-amino]-2-morpholin-4-yl-pyrimidine-4-carboxylic acid m-tolylamide]
≥ 1000	CC1CCc2ccc(NC(=O)c3cc(OCCN4CCOCC4)nc(N4CCOCC4)n3)cc2N1 (stereo not shown) [Compound 299, 2-Morpholin-4-yl-6-(2-morpholin-4-yl-ethoxy)-pyrimidine-4-carboxylic acid (2-methyl-1,2,3,4-tetrahydro-quinolin-7-yl)-amide]
≥ 1000	CCN(CC)c1cccc(NC(=O)c2cc(OCCN3CCOCC3)nc(N3CCOCC3)n2)c1 [Compound 300, 2-Morpholin-4-yl-6-(2-morpholin-4-yl-ethoxy)-pyrimidine-4-carboxylic acid (3-diethylamino-phenyl)-amide]
< 1000	COCCOc1cc(C(=O)Nc2ccc3[nH]c(C)c(C)c3c2)nc(N2CCOCC2)n1 [Compound 301, 6-(2-Methoxy-ethoxy)-2-morpholin-4-yl-pyrimidine-4-carboxylic acid (2,3-dimethyl-1H-indol-5-yl)-amide]
< 1000	COCCN(C)c1cc(C(=O)Nc2cccc(N(C)C)c2)nc(N2CCOCC2)n1 [Compound 302, 6-[(2-Methoxy-ethyl)-methyl-amino]-2-morpholin-4-yl-pyrimidine-4-carboxylic acid (3-dimethylamino-phenyl)-amide]
< 1000	CN(C)c1cccc(NC(=O)c2cc(N(C)CCO)nc(N3CCOCC3)n2)c1 [Compound 303, 6-[(2-Hydroxy-ethyl)-methyl-amino]-2-morpholin-4-yl-pyrimidine-4-carboxylic acid (3-dimethylamino-phenyl)-amide]
< 1000	CN(CCO)c1cc(C(=O)Nc2cccc(-n3cccc3)c2)nc(N2CCOCC2)n1 [Compound 304, 6-[(2-Hydroxy-ethyl)-methyl-amino]-2-morpholin-4-yl-pyrimidine-4-carboxylic acid (3-pyrrol-1-yl-phenyl)-amide]
≥ 1000	O=C(Nc1cccc(-n2ccnc2)c1)c1cc(OCCN2CCOCC2)nc(N2CCOCC2)n1 [Compound 305, 2-Morpholin-4-yl-6-(2-morpholin-4-yl-ethoxy)-pyrimidine-4-carboxylic acid (3-imidazol-1-yl-phenyl)-amide]
< 1000	Cc1[nH]c2ccc(NC(=O)c3cc(OCCO)nc(N4CCOCC4)n3)cc2c1C [Compound 307, 6-(2-Hydroxy-ethoxy)-2-morpholin-4-yl-pyrimidine-4-carboxylic acid (2,3-dimethyl-1H-indol-5-yl)-amide]
≥ 1000	CC(C)N(C)c1cccc(NC(=O)c2cc(OCCN3CCOCC3)nc(N3CCOCC3)n2)c1 [Compound 308, 2-Morpholin-4-yl-6-(2-morpholin-4-yl-ethoxy)-pyrimidine-4-carboxylic acid [3-(isopropyl-methyl-amino)-phenyl]-amide]
< 1000	CN(C)c1cccc(NC(=O)c2cc(OCCO)nc(N3CCOCC3)n2)c1 [Compound 309, 6-(2-Hydroxy-ethoxy)-2-morpholin-4-yl-pyrimidine-4-carboxylic acid (3-dimethylamino-phenyl)-amide]
< 1000	CN(CCO)c1cc(C(=O)Nc2cccc(N3CCCC3)c2)nc(N2CCOCC2)n1 [Compound 310, 6-[(2-Hydroxy-ethyl)-methyl-amino]-2-morpholin-4-yl-pyrimidine-4-carboxylic acid (3-pyrrolidin-1-yl-phenyl)-amide]
< 1000	COCCN(C)c1cc(C(=O)Nc2cccc(-n3cccn3)c2)nc(N2CCOCC2)n1 [Compound 311, 6-[(2-Methoxy-ethyl)-methyl-amino]-2-morpholin-4-yl-pyrimidine-4-carboxylic acid (3-pyrazol-1-yl-phenyl)-amide]
< 1000	CCN(C)c1cccc(NC(=O)c2cc(OCCN3CCOCC3)nc(N3CCOCC3)n2)c1 [Compound 312, 2-Morpholin-4-yl-6-(2-morpholin-4-yl-ethoxy)-pyrimidine-4-carboxylic acid [3-(ethyl-methyl-amino)-phenyl]-amide]
< 1000	O=C(Nc1cccc(-n2cccn2)c1)c1cc(OCCN2CCOCC2)nc(N2CCOCC2)n1 [Compound 313, 2-Morpholin-4-yl-6-(2-morpholin-4-yl-ethoxy)-pyrimidine-4-carboxylic acid (3-pyrazol-1-yl-phenyl)-amide]
< 1000	Cc1[nH]c2ccc(NC(=O)c3cc(OCC(C)(C)O)nc(N4CCOCC4)n3)cc2c1C [Compound 314, 6-(2-Hydroxy-2-methyl-propoxy)-2-morpholin-4-yl-pyrimidine-4-carboxylic acid (2,3-dimethyl-1H-indol-5-yl)-amide]
< 1000	CN(CCO)c1cc(C(=O)Nc2cccc(-n3cccn3)c2)nc(N2CCOCC2)n1 [Compound 315, 6-[(2-Hydroxy-ethyl)-methyl-amino]-2-morpholin-4-yl-pyrimidine-4-carboxylic acid (3-pyrazol-1-yl-phenyl)-amide]
< 1000	Cc1[nH]c2ccc(NC(=O)c3cc(OCC(=O)OC(C)(C)C)nc(N4CCOCC4)n3)cc2c1C [Compound 316, [6-(2,3-Dimethyl-1H-indol-5-ylcarbamoyl)-2-morpholin-4-yl-pyrimidin-4-yloxy]-acetic acid tert-butyl ester]
